Read-outs that look alike come from different tables or passages of the source.
Assays:
[1] = Experimental: A formulation comprising imazapic, benzyl alcohol and Tween-20 as detailed in Table 1 was prepared by (i) adding benzyl alcohol to a reactor; adding Tween-20 while mixing; (iii) gradually adding imazapic and continue mixing until the solution obtained is clear; (iv) discharging said solution from the reactor; and (v) filtering the solution using a 5 μm filter.
[2] = 20° C., cited from earlier work
[3] = 20° C.; cited from earlier work

Structure (SMILES)	solubility in organic solvents suitable for agricultural applications [1]	solubility in water ([2]; pH 5) [g/100 mL]	solubility in water ([2]; pH 7) [g/100 mL]	solubility in isopropyl alcohol [3] [g/100 mL]	solubility in methanol [3] [g/100 mL]	solubility in octanol [3] [g/100 mL]
Cc1cnc(C2=NC(=O)C(C)(C(C)C)N2)c(C(=O)O)c1 (stereo not drawn) [imazapic]	dissolve					
CC(C)N(C)S(=O)(=O)NC(=O)c1cc(-n2c(=O)cc(C(F)(F)F)n(C)c2=O)c(F)cc1Cl [saflufenacil, 2-chloro-5-[3,6-dihydro-3-methyl-2,6-dioxo-4-(trifluoromethyl)-1-(2H)pyrimidinyl]-4-fluoro-N-[[methyl(1-methylethyl)amino]sulfonyl]benzamide]		0.0025	0.21	0.25	2.98	< 0.01
